From the supplement of paper PMC10307832

Assays:
Test in all cases: relative viability (nuclei count vs DMSO), 5 days (fraction); higher = more cells survive
[1] = compound: CCN1C(=O)C2=CC(=C(N=C2N(C1=O)C3CC3)N)C(=O)N + CCNC(=O)c1noc(-c2cc(C(C)C)c(O)cc2O)c1-c1ccc(CN2CCOCC2)cc1 [Luminespib] (partner 0.01 µM)
Outline: (§1)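 Lung cancer cell lines in 1536-well plates got either a single drug or a fixed anchor-drug dose together with five library-drug doses (not always all listed) in √10 steps, by pin tool, on the day after seeding. Nuclei were counted after 5 days, and relative viability is the treated-to-vehicle ratio of nuclei counts. Values are medians of duplicate plates.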

[2] = compound: CCN1C(=O)C2=CC(=C(N=C2N(C1=O)C3CC3)N)C(=O)N + COc1cc2c(Oc3ccc(NC(=O)C4(C(=O)Nc5ccc(F)cc5)CC4)cc3F)ccnc2cc1OCCCN1CCOCC1 [Foretinib] (partner 0.25 µM)
Outline: as §1

[3] = compound: CCN1C(=O)C2=CC(=C(N=C2N(C1=O)C3CC3)N)C(=O)N + COc1cccc2cc(-c3nc([C@H]4CC[C@H](C(=O)O)CC4)n4ncnc(N)c34)[nH]c12 [OSI-027] (partner 0.5 µM)
Outline: as §1

[4] = compound: CCN1C(=O)C2=CC(=C(N=C2N(C1=O)C3CC3)N)C(=O)N + Cc1nc(NC(=O)N2CCC[C@H]2C(N)=O)sc1-c1ccnc(C(C)(C)C(F)(F)F)c1 [Alpelisib] (partner 2 µM)
Outline: as §1

[5] = compound: CCN1C(=O)C2=CC(=C(N=C2N(C1=O)C3CC3)N)C(=O)N + Nc1ncn([C@H]2C[C@H](O)[C@@H](CO)O2)c(=O)n1 [Decitabine] (partner 2 µM)
Outline: as §1

Cell Line	relative viability ([1]; first compound 0.253 µM)	relative viability ([1]; first compound 0.8 µM)	relative viability ([1]; first compound 2.53 µM)	relative viability ([1]; first compound 8 µM)	relative viability ([2]; first compound 0.253 µM)	relative viability ([2]; first compound 0.8 µM)	relative viability ([2]; first compound 2.53 µM)	relative viability ([2]; first compound 8 µM)	relative viability ([3]; first compound 0.253 µM)	relative viability ([3]; first compound 0.8 µM)	relative viability ([3]; first compound 2.53 µM)	relative viability ([3]; first compound 8 µM)	relative viability ([4]; first compound 0.253 µM)	relative viability ([4]; first compound 0.8 µM)	relative viability ([4]; first compound 2.53 µM)	relative viability ([4]; first compound 8 µM)	relative viability ([5]; first compound 0.253 µM)	relative viability ([5]; first compound 2.53 µM)	relative viability ([5]; first compound 8 µM)	relative viability ([5]; first compound 0.8 µM)
EMC-BAC-2	1.29	1.08	1.03	1.19	1.17	1	0.935	1.17	0.474	0.336	0.33	0.379	0.808	0.743	0.725	0.796	1.05	0.89	0.94	–
NCI-H727	0.238	0.309	0.394	0.321	1.06	0.889	0.888	1.23	0.59	0.528	0.654	0.723	0.568	0.572	0.598	0.658	0.882	0.802	0.676	0.842
LU99A	0.249	0.259	0.285	0.234	0.732	0.8	0.789	0.857	0.34	0.294	0.284	0.288	0.488	0.531	0.527	0.524	0.765	0.873	0.828	0.952
LK-2	0.181	0.202	0.175	0.199	1.03	1.11	1.05	1.6	0.19	0.196	0.181	0.2	0.761	1.36	1.3	1.13	0.249	0.317	0.277	0.31
NCI-H3122	0.0925	0.0714	0.0957	0.0756	1.02	0.991	0.968	0.916	0.888	0.948	0.905	0.93	0.748	0.755	0.717	0.819	0.396	0.434	0.427	0.432
NCI-H2347	1.03	0.469	0.774	0.341	0.797	1.09	1.43	1.09	0.481	0.344	0.384	0.346	0.963	0.987	1.02	0.89	0.722	0.622	0.643	0.66
NCI-H1563	0.538	0.509	0.573	0.542	0.901	0.926	0.933	1.01	0.743	0.805	0.759	0.795	0.983	0.982	0.913	0.783	–	–	–	–
HCC-827	0.77	0.588	0.459	0.866	0.982	0.993	0.99	1.06	0.778	0.771	0.793	0.794	0.915	0.964	0.941	0.88	0.342	0.332	0.319	0.284
NCI-H1666	–	1.02	1.07	1.05	–	0.857	0.948	1.04	–	0.838	0.863	0.834	0.985	0.77	0.969	1.09	0.615	0.728	0.68	0.688
NCI-H358	0.2	0.377	0.423	0.379	0.704	0.762	0.771	0.676	0.85	0.818	0.779	0.814	0.795	0.91	0.819	0.87	0.193	0.19	0.227	0.207
201T	1.06	1.04	1.02	1.08	1.01	1.07	1.15	1.2	0.431	0.729	0.761	0.667	1.04	1.02	1.04	1.04	0.866	0.814	0.844	0.81
RERF-LC-KJ	1.27	1.17	1.22	1.14	0.868	0.875	0.898	0.884	0.6	0.638	0.584	0.632	0.792	0.791	0.763	0.838	0.772	0.68	0.593	0.742
NCI-H2405	0.668	0.844	0.755	0.652	1.04	1.05	1.07	1.06	0.664	0.667	0.604	0.616	0.909	0.79	0.767	0.723	0.771	0.718	0.669	–
LXF-289	0.693	0.73	0.661	0.784	0.995	1	0.966	1	0.827	0.864	0.815	0.793	1.04	1.07	1.03	1.05	0.345	0.346	0.336	0.37
EKVX	0.94	0.952	0.772	0.722	0.785	0.743	0.875	0.639	0.803	0.751	0.675	0.498	0.975	0.896	0.821	0.851	0.352	0.352	0.296	0.33
A-427	1.13	1.26	1.24	1.13	1.13	1.13	1.08	1.21	0.46	0.487	0.49	0.466	1.02	1.04	1.04	1.09	0.552	0.521	0.563	0.537
IA-LM	–	–	–	–	1.21	1.03	0.963	1.44	–	–	–	–	0.743	0.816	0.584	0.696	–	–	–	–
